{
  "source": "patent US8927563B2",
  "about": "“Kinase inhibitor” (Respivert Limited, priority 2013, dated 2015)",
  "key": {"non-mutant kinases": {"tested_on": "non-mutant kinases", "assay": "KinomeScan selectivity scores", "assay_type": "binding", "experimental": "Kinase enzyme binding activities of compounds disclosed herein may be determined using a proprietary assay which measures active site-directed competition binding to an immobilized ligand (Fabian, M. A. et al., Nature Biotechnol., 2005, 23:329-336). These assays may be conducted by DiscoverX (formerly Ambit; San Diego, Calif.). The percentage inhibition produced by incubation with a test compound may be calculated relative to the non-inhibited control."}, "c-Src": {"target": "c-Src (Homo sapiens (Human), UniProt P12931)", "sequence (P12931 whole entry, looked up)": "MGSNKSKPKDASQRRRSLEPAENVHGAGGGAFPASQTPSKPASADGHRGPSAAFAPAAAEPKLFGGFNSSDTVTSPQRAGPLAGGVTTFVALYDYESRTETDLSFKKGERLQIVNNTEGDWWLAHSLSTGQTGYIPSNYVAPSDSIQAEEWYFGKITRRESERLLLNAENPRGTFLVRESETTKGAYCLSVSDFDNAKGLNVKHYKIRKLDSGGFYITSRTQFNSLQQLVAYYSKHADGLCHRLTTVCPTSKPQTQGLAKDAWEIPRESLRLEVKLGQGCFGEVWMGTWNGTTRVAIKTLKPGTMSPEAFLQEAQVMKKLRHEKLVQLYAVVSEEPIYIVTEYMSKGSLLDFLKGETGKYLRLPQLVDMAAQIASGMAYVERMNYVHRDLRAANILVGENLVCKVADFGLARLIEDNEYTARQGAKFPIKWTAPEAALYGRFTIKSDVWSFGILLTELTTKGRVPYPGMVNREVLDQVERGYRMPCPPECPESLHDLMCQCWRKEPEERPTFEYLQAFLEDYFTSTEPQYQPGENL", "assay": "c-Src enzyme inhibition, Z-LYTE FRET", "assay_type": "biochemical", "experimental": "The enzyme inhibitory activities of compounds disclosed herein are determined by FRET using synthetic peptides labelled with both donor and acceptor fluorophores (Z-LYTE, Invitrogen Ltd., Paisley, UK).\nThe inhibitory activities of the compound of the invention against c-Src and Syk enzymes (Invitrogen) are evaluated in a similar fashion to that described hereinabove. The relevant enzyme (3000 ng/mL or 2000 ng/mL respectively, 2.5 μL) is incubated with the test compound (either 1 μg/mL, 0.1 μg/mL, 0.01 μg/mL, or 0.001 μg/mL, 2.5 μL each) for 2 hr at RT. The FRET peptides (8 μM, 2.5 μL) and appropriate ATP solutions (2.5 μL, 800 μM for c-Src, and 60 μM ATP for Syk) are then added to the enzymes/compound mixtures and the mixture incubated for 1 hr. Development reagent (protease, 5 μL) is added for 1 hr prior to detection in a fluorescence microplate reader (Varioskan® Flash, ThermoFisher Scientific).\nIn all cases, the site-specific protease cleaves non-phosphorylated peptide only and eliminates the FRET signal. Phosphorylation levels of each reaction are calculated using the ratio of coumarin emission (donor) over fluorescein emission (acceptor), for which high ratios indicate high phosphorylation and low ratios indicate low phosphorylation levels."}, "d-U937 cells": {"tested_on": "d-U937 cells", "assay": "Accumulation of β catenin in d-U937 cells", "assay_type": "cell-based, human", "settings": "normalised to Reference compound at 1 μg/mL", "experimental": "U937 cells, a human monocytic cell line, are differentiated into macrophage-type cells by incubation with PMA (100 ng/mL) for between 48 to 72 hr. The cells are then incubated with either final concentrations of test compound or vehicle for 18 hr. The induction of β-catenin by the test compound is stopped by replacing the media with 4% formaldehyde solution. Endogenous […] is neutralised by incubating with quenching buffer (100 μL, 0.1% sodium azide, 1% H2O2 in PBS with 0.05% Tween-20) for 20 min. The cells are washed with washing buffer (200 μL; PBS containing 0.05% Tween-20) and incubated with blocking solution (200 μL; 5% milk in PBS) for 1 hr, re-washed with washing buffer (200 μL) and then incubated overnight with anti-β-catenin antibody solution (50 μL) in 1% BSA/PBS (BD, Oxford, UK).\nAfter washing with washing buffer (3×200 μL; PBS containing 0.05% Tween-20), cells are incubated with a HRP-conjugated secondary antibody solution (100 μL) in 1% BSA/PBS (Dako, Cambridge, UK) and the resultant signal is determined colourimetrically (OD: 450 nm with a reference wavelength of 655 nm) using TMB substrate (50 μL; R&D Systems, Abingdon, UK). This reaction is stopped by addition of 1N H2SO4 solution (50 μL). Cells are then washed with washing buffer and 2% crystal violet solution (50 μL) is applied for 30 min. After washing with washing buffer (3×200 μL), 1% SDS (100 μL) is added to each well and the plates are shaken lightly for 1 hr prior to measuring the absorbance at 595 nm (Varioskan® Flash, Thermo-Fisher Scientific).\nThe measured OD450-655 readings are corrected for cell number by dividing the OD450-655 by the OD595 readings."}, "[1]": {"tested_on": "adoptive transfer colitis", "assay": "Adoptive transfer mouse model", "assay_type": "in vivo, mice", "experimental": "On Study day 0, female Balb/C mice are terminated and spleens obtained for CD45RB^high cell isolation (Using SCID IBD cell Separation protocol). Approximately 4×10^5 cells/mL CD45RB^high cells are then injected intraperitoneally (100 μL/mouse) into female SCID animals. On study day 14, mice are weighed and randomized into treatment groups based on body weight. On Day 14, the compound is administered BID, via oral gavage, in a vehicle comprising a defined mixture of corn oil (32.5%), transcutol (20%), maisine (12.5%) and cremophor ELP (35%) at the dose levels outlined below in Tables 6a and 6b and a dose volume of 5 mL/kg. Treatment continues until study day 42, at which point the animals are necropsied 4 hours after the morning administration. The colon length and weight are recorded and used as a secondary endpoint in the study as a measurement of colon oedema. The colon is then divided into six cross-sections, four of which are used for histopathology scoring (primary endpoint) and two are homogenised for cytokine analysis. Data shown is the % inhibition of the induction window between naïve animals and vehicle animals, where higher inhibition implies closer to the non-diseased, naïve, phenotype."}, "[2]": {"assay": "Human hepatocyte stability test", "assay_type": "in vitro ADME", "settings": "human hepatocytes", "experimental": "(§1) Assessment of certain in vitro ADME (absorption, distribution, metabolism, and excretion) parameters for Compound I was conducted by BioFocus (Saffron Walden, UK). The results reveal that Compound I is cleared rapidly by human hepatocytes and that it has a reduced liability for time-dependent cytochrome P450 inhibition."}, "human hepatocytes": {"tested_on": "human hepatocytes", "assay": "Human hepatocyte stability test", "assay_type": "in vitro ADME", "experimental": "as §1"}, "CYP3A4": {"target": "CYP3A4 (Homo sapiens (Human), UniProt P08684)", "sequence (P08684 whole entry)": "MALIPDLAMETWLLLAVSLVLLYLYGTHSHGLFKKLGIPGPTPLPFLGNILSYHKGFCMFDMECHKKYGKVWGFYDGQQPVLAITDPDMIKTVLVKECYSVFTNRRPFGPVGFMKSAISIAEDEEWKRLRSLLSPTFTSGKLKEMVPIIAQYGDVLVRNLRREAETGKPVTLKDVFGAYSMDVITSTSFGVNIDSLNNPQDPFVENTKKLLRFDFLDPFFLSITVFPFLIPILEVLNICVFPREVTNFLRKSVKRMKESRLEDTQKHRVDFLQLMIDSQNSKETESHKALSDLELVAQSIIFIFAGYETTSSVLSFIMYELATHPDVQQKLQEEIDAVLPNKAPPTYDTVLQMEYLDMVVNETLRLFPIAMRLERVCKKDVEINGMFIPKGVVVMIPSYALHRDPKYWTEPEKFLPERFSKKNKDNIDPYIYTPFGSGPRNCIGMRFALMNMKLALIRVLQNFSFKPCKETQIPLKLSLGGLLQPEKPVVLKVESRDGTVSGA", "assay": "CYP3A4 inhibition with and without preincubation", "assay_type": "in vitro ADME", "settings": "for inhibition at 15 µM: human, read-out: 15 μM % Inh", "experimental": "as §1"}},
  "note": "Read-outs that look alike come from different tables or passages of the source.",
  "data": [
    {"smiles": "C#Cc1cc(Nc2nccc(Oc3ccc(NC(=O)Nc4cc(C(C)(C)C)cc(NS(C)(=O)=O)c4OC)c4ccccc34)n2)cc(C(=O)NCCOCCOCCOC)c1", "note": "[Compound I, 3-((4-((4-(3-(5-(tert-Butyl)-2-methoxy-3-(methylsulfonamido)phenyl)ureido)naphthalen-1-yl)oxy)pyrimidin-2-yl)amino)-5-ethynyl-N-(2-(2-(2-methoxyethoxy)ethoxy)ethyl)benzamide]", "values": [
      {"measurement": "number of individual kinase hits, S(1)", "setting": "non-mutant kinases; 50 nM, % Ctrl <1", "value": 0},
      {"measurement": "KinomeScan Selectivity Score S(10)", "setting": "non-mutant kinases; 50 nM, % Ctrl <10", "value": 0.023},
      {"measurement": "number of individual kinase hits, S(10)", "setting": "non-mutant kinases; 50 nM, % Ctrl <10", "value": 9},
      {"measurement": "KinomeScan Selectivity Score S(35)", "setting": "non-mutant kinases; 50 nM, % Ctrl <35", "value": 0.068},
      {"measurement": "number of individual kinase hits, S(35)", "setting": "non-mutant kinases; 50 nM, % Ctrl <35", "value": 27},
      {"measurement": "KinomeScan Selectivity Score S(1)", "setting": "non-mutant kinases; 500 nM, % Ctrl <1", "value": 0.038},
      {"measurement": "number of individual kinase hits, S(1)", "setting": "non-mutant kinases; 500 nM, % Ctrl <1", "value": 15},
      {"measurement": "number of individual kinase hits, S(10)", "setting": "non-mutant kinases; 500 nM, % Ctrl <10", "value": 51},
      {"measurement": "number of individual kinase hits, S(35)", "setting": "non-mutant kinases; 500 nM, % Ctrl <35", "value": 78},
      {"measurement": "IC50", "setting": "c-Src", "value": 0.024, "unit": "µM"},
      {"measurement": "% β-catenin induction", "setting": "d-U937 cells; 1 μg/mL", "value": 21, "unit": "%"},
      {"measurement": "% β-catenin induction", "setting": "d-U937 cells; 5 μg/mL", "value": 14, "unit": "%"},
      {"measurement": "% β-catenin induction", "setting": "d-U937 cells; 10 μg/mL", "value": 26, "unit": "%"},
      {"measurement": "IFNγ level in colon tissue", "setting": "[1]; 3 mg/kg", "value": "10.8 ± 3.3", "unit": "pg/mL"},
      {"measurement": "IL-8 level in colon tissue", "setting": "[1]; 3 mg/kg", "value": "70.8 ± 22.8", "unit": "pg/mL"},
      {"measurement": "Colon weight:length", "setting": "[1]; 3 mg/kg BID oral", "value": "0.024 ± 0.003"},
      {"measurement": "% Inhibition of induction window between naïve and vehicle animals", "setting": "[1]; 3 mg/kg BID oral, colon weight:length", "value": 90, "unit": "%"},
      {"measurement": "Colon weight:length", "setting": "[1]; additional study, 0.03 mg/kg", "value": "0.033 ± 0.002"},
      {"measurement": "Colon weight:length", "setting": "[1]; additional study, 0.3 mg/kg", "value": "0.041 ± 0.005"},
      {"measurement": "Colon weight:length", "setting": "[1]; additional study, 3 mg/kg", "value": "0.034 ± 0.003"},
      {"measurement": "half-life", "setting": "[2]", "value": 34, "unit": "min"},
      {"measurement": "hepatocyte CLint", "setting": "[2]; read-out: Mean intrinsic clearance", "value": 41, "unit": "µL/min/1e6 cells"},
      {"measurement": "Mean hepatic extraction ratio", "setting": "human hepatocytes", "value": 0.85},
      {"measurement": "IC50", "setting": "CYP3A4; CYP3A4, 0 min preincubation", "value": "> 15", "unit": "µM"},
      {"measurement": "IC50", "setting": "CYP3A4; CYP3A4, 30 min preincubation", "value": 7.8, "unit": "µM"},
      {"measurement": "inhibition at 15 µM", "setting": "CYP3A4; CYP3A4, 0 min preincubation", "value": 31, "unit": "%"},
      {"measurement": "inhibition at 15 µM", "setting": "CYP3A4; CYP3A4, 30 min preincubation", "value": 54, "unit": "%"}
    ]}
  ]
}
